{"source": "patent US20250034091A1", "about": "“Small molecule inhibitors of lanosterol synthase” (Board of Regents, The University of Texas System, priority 2022, published 2025)", "key": {"Mut6 cells [1]": {"system": "Mut6 cells", "assay": "rescue of toxicity by exogenous lanosterol or cholesterol in Mut6 cells", "type": "cell-based, murine", "excerpt": "Taken together, we concluded that the levels of EPC resulting from 1 treatment are sufficient to downregulate SREBP target genes, upregulate LXR target genes, and block cell proliferation. Through its coordinated action on the critical transcriptional regulators of cholesterol homeostasis, LXRs and SREBPs, EPC can cause lethal reductions in cellular cholesterol levels. To test this hypothesis, we evaluated cell proliferation following treatment with increasing doses of either S-EPL or 1 in the presence of exogenous lanosterol or cholesterol conjugated to methyl beta-cyclodextrin (MCD), which aids sterol solubility and delivery. Supplementing cells with either lanosterol or cholesterol rescued Mut6 cells from the toxic effects of either S-EPL or 1. These observations provide evidence that the anti-proliferative activity of 1 is due to the production of EPC and the resulting depletion of cellular cholesterol.\nThis latter observation raised the hypothesis that Ro 48-8071 inhibited one or more enzymes downstream of LSS thereby blunting EPC synthesis. To evaluate whether Ro 48-8071 inhibits the synthesis of EPC downstream of EPL, we cultured cells with isotopically labeled EPL (d6-EPL) and measured d6-EPC production following compound treatment. Ro 48-8071 inhibited the production of d6-EPC while 1 had no effect on d6-EPC production. […]"}, "p75/LSS": {"target": "T1, p75/LSS (Mus musculus, UniProt Q8BLN5)", "T1 construct": "endogenous in cells; host or cells: Mut6 murine GBM stem-like cells", "T1 sequence (Q8BLN5 1-733)": "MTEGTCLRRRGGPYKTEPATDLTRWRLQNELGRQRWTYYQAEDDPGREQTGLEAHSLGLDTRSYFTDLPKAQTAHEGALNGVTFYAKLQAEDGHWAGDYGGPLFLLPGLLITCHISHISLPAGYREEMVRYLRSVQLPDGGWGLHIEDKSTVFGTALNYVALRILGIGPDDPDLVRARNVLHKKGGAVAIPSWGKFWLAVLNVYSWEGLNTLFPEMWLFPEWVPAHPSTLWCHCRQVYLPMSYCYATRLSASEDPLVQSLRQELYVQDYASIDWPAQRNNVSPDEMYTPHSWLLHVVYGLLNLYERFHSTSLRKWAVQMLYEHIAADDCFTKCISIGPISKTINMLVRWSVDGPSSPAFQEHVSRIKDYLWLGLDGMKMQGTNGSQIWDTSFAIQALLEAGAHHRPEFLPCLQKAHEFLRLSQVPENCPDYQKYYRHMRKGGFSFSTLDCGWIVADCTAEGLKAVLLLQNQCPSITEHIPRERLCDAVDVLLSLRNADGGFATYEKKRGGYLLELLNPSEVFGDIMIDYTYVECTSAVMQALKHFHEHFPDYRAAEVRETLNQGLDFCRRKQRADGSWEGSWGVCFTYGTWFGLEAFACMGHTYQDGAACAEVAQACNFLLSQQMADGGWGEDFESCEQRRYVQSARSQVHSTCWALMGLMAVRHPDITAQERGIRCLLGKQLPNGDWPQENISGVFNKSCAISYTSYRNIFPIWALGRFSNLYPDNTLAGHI", "assay": "p75 probe-displacement assay with MM0299-probe in Mut6 cells", "type": "binding", "settings": "read-out: p75 binding EC50 (concentration of competitor required to displace 50% of probe-bound signal)", "description": "We sought to understand the mechanism of action (MoA) of MM0299 by identifying which proteins it binds to in Mut6 cells. […] Following ultraviolet (UV) light exposure, photoreactive diazirine groups form reactive carbenes that have the potential to react with nearby amino acid residues resulting in the covalent addition of the compound to a bound protein. We incubated Mut6 cells with increasing concentrations of probe 2 either with or without UV treatment (306 nm), and the resulting lysates were reacted with a fluorescent azide in a copper(I)-catalyzed azide-alkyne cycloaddition (commonly referred to as “click” chemistry). […] Several protein bands increased in fluorescent intensity in a dose-dependent manner exclusively in the UV condition, the most prominent of which migrated at approximately 75 kDa (p75).\nTo determine whether binding to any of the observed bands was related to toxicity, we performed a series of probe-displacement assays by co-incubating cells with a fixed concentration of probe 2 and increasing concentrations of competitor 1. […] Even though probe 2 bound to multiple proteins, we observed that only p75 fluorescence decreased in a dose-dependent manner. […] In parallel, we determined the anti-proliferative activity for each derivative in a dose-dependent manner to determine its IC50, yielding a structure-activity relationship."}, "EBP": {"target": "T2, EBP (Homo sapiens, UniProt Q15125)", "T2 construct": "endogenous in cells; host or cells: HCT116", "T2 sequence (Q15125 whole entry)": "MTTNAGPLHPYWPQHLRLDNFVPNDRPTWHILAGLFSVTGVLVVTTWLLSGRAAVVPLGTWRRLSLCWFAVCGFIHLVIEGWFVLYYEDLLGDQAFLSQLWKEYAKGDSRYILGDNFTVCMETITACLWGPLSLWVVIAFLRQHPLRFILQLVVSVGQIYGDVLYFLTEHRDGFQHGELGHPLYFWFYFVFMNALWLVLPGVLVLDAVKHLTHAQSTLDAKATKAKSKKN", "assay": "displacement of EBP-specific photoaffinity probe TASIN-2 in HCT116 cells", "type": "binding", "settings": "1 μM TASIN-2", "excerpt": "Inhibition of these sterol biosynthetic enzymes might provide an explanation for our observation that Ro-48-8071 has a blunted increase in EPC following LSS inhibition. […] Consistent with the proteomics data, Ro 48-8071 and TASIN-30, but not 1, displaced TASIN-2 (band migrating at approximately 20 kDa)."}, "Mut6 cells [2]": {"system": "Mut6 cells", "assay": "Mut6 cell survival / anti-proliferative activity", "type": "cell-based, murine", "settings": "read-out: IC50, viability / anti-proliferative activity in Mut6"}}}
{"smiles": "C=CCN(C)CCCCCCOc1ccc(C(=O)c2ccc(Br)cc2)c(F)c1", "note": "[Ro 48-8071, reference compound]", "values": [{"measurement": "increase in the IC50 with exogenous cholesterol", "setting": "Mut6 cells [1]", "result": 479.4, "unit": "fold"}, {"measurement": "increase in the IC50 with exogenous lanosterol", "setting": "Mut6 cells [1]", "result": 21.7, "unit": "fold"}, {"measurement": "EC50", "setting": "p75/LSS", "result": 2.48, "unit": "nM"}, {"measurement": "displacement of TASIN-2 (EBP probe)", "setting": "EBP", "result": "displaced"}, {"measurement": "IC50", "setting": "Mut6 cells [2]", "result": 11.2, "unit": "nM"}]}
